Assay results taken from patent US5639726A, “Peptide mediated enhancement of thrombolysis methods and compositions” (The Regents of the University of Michigan, priority 1994, dated 1997).
Ends that are not written are not given here.

Target: T1, vitronectin-bound PAI-1 (Homo sapiens, UniProt P05121)
T1 construct: made in house; host or cells: E. coli (PAI-1); vitronectin a gift
Assay: PAI-1 activity assay in the presence of vitronectin
Format: biochemical
Details: for T1/2 of vitronectin-bound PAI-1: PAI-1 0.7 μM with vitronectin 1.7 μM, 37° C., 190±12 minutes without peptide
Description: PAI-1 (0.7 μM) was incubated at 37° C. with either P1-P14 peptide or control peptide (55 μM) in 0.1M HEPES, 0.1M NACl, 0.1% PEG (MW 8000), pH 7.4 (assay buffer). At timed intervals 0-110 minutes), 5 μL of the PAI-1:peptide mixture was added to 96 well microtiter plates containing 45 μL of t-PA (0.03 μM in assay buffer), then incubated for 30 minutes at 37° C. Spectrozyme t-PA (final concentration of 150 μM) was added to yield a final reaction volume of 70 μL, and 30 minutes later the absorbance at 405 nm was determined in a THERMO-max (Molecular Devices, Palo Alto, Calif.) microplate reader. 100% PAI-1 activity was defined as activity observed at time zero, while 0% PAI-1 activity was defined as that observed in the absence of PAI-1. A standard t-PA activity curve, derived from absorbance values of varying concentrations of t-PA incubated in the absence of PAI-1, was used to determine PAI-1 activity.
Since vitronectin binds and stabilizes the active conformation of PAI-1, the capacity of the Thr-Val-Ala-Ser-Ser-Ser-Thr-Ala-Val-Ile-Val-Ser-Ala-Arg (SEQ ID NO: 1) to inactivate vitronectin-bound PAI-1 was examined. PAI-1 (0.7 μM) was incubated with vitronectin (1.7 μM) for 30 minutes at 37° C., then Thr-Val-Ala-Ser -Ser-Ser-Thr-Ala-Val-Ile-Val-Ser-Ala-Arg (SEQ ID NO: 1) or control peptide (55 μM) was added, and the PAI-1 T1/2 was determined. In the presence of vitronectin, the T1/2 of PAI-1 was prolonged approximately 2-fold (98±18 to 190±12 minutes), similar to previous reports (Declerck et al. 1988).

T1 sequence (P05121 24-402): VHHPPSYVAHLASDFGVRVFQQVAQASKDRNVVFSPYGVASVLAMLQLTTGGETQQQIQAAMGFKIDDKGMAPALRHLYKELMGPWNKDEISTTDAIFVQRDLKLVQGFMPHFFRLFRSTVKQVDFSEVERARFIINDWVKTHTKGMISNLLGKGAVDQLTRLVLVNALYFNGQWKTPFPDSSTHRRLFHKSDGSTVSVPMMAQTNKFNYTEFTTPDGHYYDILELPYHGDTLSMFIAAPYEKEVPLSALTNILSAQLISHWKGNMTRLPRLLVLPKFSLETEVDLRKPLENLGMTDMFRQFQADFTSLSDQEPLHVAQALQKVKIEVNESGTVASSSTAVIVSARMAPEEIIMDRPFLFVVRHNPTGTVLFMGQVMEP

Ac-TVASSSTAVIVSAR [SEQ ID NO: 1, Thr-Val-Ala-Ser-Ser-Ser-Thr-Ala-Val-Ile-Val-Ser-Ala-Arg]
T1/2 of vitronectin-bound PAI-1 (peptide 55 μM): about 120 minutes | T1/2 of vitronectin-bound PAI-1 (peptide 55 μM, listed as P1-P14 peptide): only slowly inactivated | decrease of the half-life of PAI-1 in the presence of vitronectin (from approximately 190 to about 120 minutes): ~40% | fold decrease of the half-life of vitronectin-bound PAI-1 (peptide 55 μM): 1.6 fold
